{
  "source": "patent US20040258621A1",
  "about": "“Method of treating snoring and other obstructive breathing disorders” (priority 2002, published 2004)",
  "key": {"[1]": {"tested_on": "snoring in a nocturnal breathing obstructed person with GERD", "assay": "Case study of a snoring patient with GERD", "type": "in vivo, human", "conditions": "for beneficial effect on snoring: throughout the subsequent year", "excerpt": "A person, 5 feet 3 inches tall and moderately overweight reported a 15-20 year history of progressively increasing snoring. The intensity of their snoring was well documented by their spouse, who experienced disturbed sleep as a result of their spouse's snoring, occasionally requiring them to waken the patient in order for them to obtain relief. The patient gave no history of naso-pharyngeal structural abnormalities or surgery (other than third molar extraction) and had experienced no breathing disorder.\nThe patient complained to their physician of a chronic scratchiness in their throat, thought to be a result of gastroesophageal reflux disease (GERD). To treat the GERD symptoms, the patient was placed on Prevacid (Lansoprazole) 15 mg once daily."}, "[2]": {"tested_on": "outpatients with significant snoring", "assay": "Open label study on 8 outpatients with significant snoring", "type": "in vivo, human", "conditions": "30 mg, 35 to 90 days (mean 61 days)", "experimental": "An open label study was performed on 8 outpatients with significant snoring. The patients were treated with Prevacid 30 mg. for 30-90 days. The entry criteria were snoring with or without sleep apnea, documented by history, physical exam, and independent sleep lab studies. […] At baseline patients had all been placed on conservative nasal regimen with no improvement in their symptoms. […] At the end of treatment changes in global and spousal ratings of snoring were made along with investigator observations.\nThe demographics of the study group were eight males no females; a mean age of 50.6 years with a range of 32-70; a mean weight of 206 lbs with a range of 160-260; and there were 6 white, 1 black, and 1 Asian in the group. At baseline the investigator made the diagnosis of GERD in 4 patients. Spousal ratings of snoring were 3 moderate and 5 severe; 4 had moderate or severe sleep apnea; and all 8 had daytime sleepiness.\nThe duration of treatment ranged from 35 to 90 days with a mean of 61 days. At conclusion of the study, 7 of 8 patients had moderate or marked improvement in snoring. […] 8 of 8 patients had marked improvement in their sleep with less waking and less daytime fatigue."}, "[3]": {"conditions": "cited from earlier work; for stability in acidic media: acid media"}, "[4]": {"conditions": "cited from earlier work"}, "[5]": {"conditions": "especially at room temperature; cited from earlier work"}, "[6]": {"conditions": "+37° C., relative humidity 80%, 6 months; cited from earlier work"}, "[7]": {"tested_on": "heartburn symptoms and lesions caused by heartburn", "conditions": "according to the manufacturer AstraZeneca; cited from earlier work"}},
  "note": "Where a name gives a salt, the structure may show the parent alone. Read-outs that look alike come from different tables or passages of the source.",
  "data": [
    {"smiles": "NC(N)=Nc1nc(CSCCC(N)=NS(N)(=O)=O)cs1", "note": "[Pepcid AC (Famotidine), famotidine]", "values": [
      {"measurement": "beneficial effect on snoring", "setting": "[1]", "result": "maintained"}
    ]},
    {"smiles": "Cc1c(OCC(F)(F)F)ccnc1C[S+]([O-])c1nc2ccccc2[nH]1", "note": "(stereo not drawn) [Prevacid (Lansoprazole), 2-[[[3-methyl-4-(2,2,2-trifluoroethoxy)-2-pyridyl]methyl]sulfinyl]benzimidazole]", "values": [
      {"measurement": "intensity of the patient's snoring (spouse's observation)", "setting": "[1]; 15 mg once daily", "result": "gradual decline"},
      {"measurement": "throat scratchiness", "setting": "[1]; 15 mg once daily, after beginning treatment", "result": "declined promptly"},
      {"measurement": "benefit on snoring sustained for the duration of dosing", "setting": "[1]; 15 mg once daily, approximately 12 months", "result": "moderate to marked benefit"},
      {"measurement": "snoring after dosing was interrupted", "setting": "[1]; dosing interrupted for several weeks", "result": "resumption of noticeable snoring intensity"},
      {"measurement": "patients with marked improvement in their sleep with less waking and less daytime fatigue", "setting": "[2]", "result": "8 of 8"},
      {"measurement": "patients with moderate or marked improvement in snoring", "setting": "[2]", "result": "7 of 8"}
    ]},
    {"smiles": "COCCCOc1ccnc(C[S+]([O-])c2nc3ccccc3[nH]2)c1C", "note": "(stereo not drawn) [Rabeprazole sodium, 2-[[[4-(3-methoxypropoxy)-3-methyl-2-pyridinyl]-methyl]sulfinyl]-1H-benzimidazole sodium salt]", "values": [
      {"measurement": "stability in acidic media", "setting": "[3]", "result": "rapidly degraded"},
      {"measurement": "stability under alkaline conditions", "setting": "[3]", "result": "more stable"},
      {"measurement": "solubility", "setting": "[4]; chloroform", "result": "freely soluble"},
      {"measurement": "solubility", "setting": "[4]; ethanol", "result": "freely soluble"},
      {"measurement": "solubility", "setting": "[4]; ether", "result": "insoluble"},
      {"measurement": "solubility", "setting": "[4]; ethyl acetate", "result": "freely soluble"},
      {"measurement": "solubility", "setting": "[4]; methanol", "result": "very soluble"},
      {"measurement": "solubility", "setting": "[4]; n-hexane", "result": "insoluble"},
      {"measurement": "solubility", "setting": "[4]; water", "result": "very soluble"}
    ]},
    {"smiles": "COc1ccc2[nH]c([S+]([O-])Cc3ncc(C)c(OC)c3C)nc2c1", "note": "(stereo not drawn) [Omeprazole form A, omeprazole]", "values": [
      {"measurement": "thermodynamic stability versus omeprazole form B", "setting": "[5]", "result": "thermodynamically more stable"}
    ]},
    {"smiles": "COc1ccc2[nH]c([S+]([O-])Cc3ncc(C)c(OC)c3C)nc2c1", "note": "(stereo not drawn) [omeprazole, 5-methoxy-2-[[(4-methoxy-3,5-dimethyl-2-pyridinyl)methyl]sulfinyl]-1H-benzimidazole]", "values": [
      {"measurement": "substance converted to degradation products", "setting": "[6]", "result": "about 6%"}
    ]},
    {"smiles": "CN/C(=N/CCSCc1nc[nH]c1C)NC#N", "note": "[Tagamet (Cimetidine), cimetidine]", "values": [
      {"measurement": "beneficial effect on snoring", "setting": "[1]", "result": "maintained"}
    ]},
    {"smiles": "COc1ccc2c(c1)nc([S@@+]([O-])Cc1ncc(C)c(OC)c1C)[n]2[Mg][n]1c([S@@+]([O-])Cc2ncc(C)c(OC)c2C)nc2cc(OC)ccc21.O.O.O", "note": "[esomeprazole magnesium, bis(5-methoxy-2-[(S)-[(4-methoxy-3,5-dimethyl-2-pyridinyl)methyl]sulfinyl]-1H-benzimidazole-1-yl) magnesium trihydrate]", "values": [
      {"measurement": "stability in acidic media", "setting": "[3]", "result": "rapidly degrades"},
      {"measurement": "stability under alkaline conditions", "setting": "[3]", "result": "acceptable stability"},
      {"measurement": "rates of healing of certain lesions caused by heartburn versus PRILOSEC", "setting": "[7]", "result": "higher rates of healing"},
      {"measurement": "reduction of heartburn symptoms versus PRILOSEC", "setting": "[7]", "result": "faster"},
      {"measurement": "solubility", "setting": "[4]; water", "result": "slightly soluble"}
    ]}
  ]
}
